Results taken from patent publication US20230106943A1, “ENGINEERED ANTIMICROBIAL PEPTIDES AND USAGE THEREOF” (Peptilogics, Inc., priority 2021, published 2023).
Values joined by “and” are separate entries in the source; they are usually repeats but may differ in a detail not shown here. Identical values can stand only once. Like-named read-outs stand apart in the source and are kept apart here. No end group written: not given here.

Experiments:
[1] = Stability of 5 mg/mL SEQ ID NO: 1 solution pH 5.0 stored at 40° C. or −20° C. (content, pH, HPLC area %); assay type: physicochemical
[2] = Example 6 solubility near saturation of SEQ ID NO: 1 in water at pH 5.0, 7.4, 8.1 (HPLC); assay type: physicochemical; conditions: for Purity of near saturation solution: water
Method: SEQ ID NO: 1 was dissolved to near saturation of different pH values.
396.69 mg of SEQ ID NO:1 was weighed out and dissolved in approximately 3 mL of HPLC-grade water resulting in a clear and colorless solution. The pH was 4.80 and the concentration approximately 132 mg/mL. The pH was adjusted with 0.08 M NaOH to pH=4.99. 1.1 mL was pulled, transferred to a serum vial, frozen and lyophilized. The remaining solution was adjusted to pH=7.40 with 0.08 M and 1 M NaOH. 1.45 mL was pulled, transferred to a serum vial, frozen and lyophilized. The remaining solution was adjusted to pH=8.00 with 0.08 M NaOH. This remaining solution (˜1.9 mL) was transferred to a serum vial, frozen and lyophilized. After lyophilization 200 μL HPLC-grade water was added to the solids in the serum vials and a colorless slurry was obtained. An additional 200 μL HPLC-grade water was added to obtain clear and colorless solutions. At pH=5.0 the solids went into solution without foaming; solids at pH=7.4 and pH=8 took longer to dissolve. These solutions (0.4 mL) were transferred to conical Eppendorf tubes. The vials were washed with 0.2 mL of HPLC grade water and the washes were combined with the respective solutions at the three different pH conditions. The samples were frozen and lyophilized. To the lyo cakes 50 μL increments of HPLC grade water was added. Transition from suspension or slurry to viscous solution was hard to capture. After adding 150 μL to 350 μL of HPLC grade water and intermittent mixing and storage at ambient temperature viscous and clear solutions were obtained which turned to gels when stored refrigerated at 2-8° C. All viscous solutions were centrifuged for 10 min at 12 krpm. No visible pellets were detected after centrifugation. Supernatants of the samples were analyzed for peptide concentration and purity by HPLC analysis.

[3] = Stability of 5 mg/mL SEQ ID NO: 1 solution pH 5.0 stored at 40° C. or −20° C. (content, pH, HPLC area %); assay type: physicochemical; conditions: for level of impurity at RRT 0.98: 5 mg/mL solution pH 5.0
Method: Enhanced stability was shown of the peptide formulation after 54 days of storage at 40° C. as a liquid solution with a concentration of 5 mg/mL of SEQ ID NO: 1 at pH of 5.0. FIG. 4 depict the overlaid chromatograph of SEQ ID NO: 1 after 7 days at 40° C. (bottom graph) and after 54 days at 40° C. (top graph).

[4] = Example 4 stability of concentrated solutions: pH (method 05627); assay type: physicochemical
Method: (§1) The peptide formulation of SEQ ID NO: 1 dissolved in a saline solution with a pH of 5.0±0.1 was tested for stability under either −20° C. or 40° C. with 75% relative humidity (RH). […]

[5] = Example 4 stability of concentrated saline pH 5.0 solutions at −20° C. or 40° C./75% RH: Visual Appearance (method 25481); assay type: physicochemical
Method: as §1

[6] = 15.3 mg/mL solution, 40° C. and 75% RH, 1 Month
[7] = 15.3 mg/mL solution, 40° C. and 75% RH, 2 Month
[8] = 15.3 mg/mL solution, 40° C. and 75% RH, 3 Month
[9] = 15.3 mg/mL solution, 40° C. and 75% RH, 6 Month
[10] = 15.3 mg/mL solution, −20° C., 0 Month
[11] = 15.3 mg/mL solution, −20° C., 1 Month
[12] = 15.3 mg/mL solution, −20° C., 2 Month
[13] = 15.3 mg/mL solution, −20° C., 3 Month
[14] = 15.3 mg/mL solution, −20° C., 6 Month
[15] = 36.7 mg/mL solution, 40° C. and 75% RH, 1 Month
[16] = 36.7 mg/mL solution, 40° C. and 75% RH, 2 Month
[17] = 36.7 mg/mL solution, 40° C. and 75% RH, 3 Month
[18] = 36.7 mg/mL solution, 40° C. and 75% RH, 6 Month
[19] = 36.7 mg/mL solution, −20° C., 0 Month
[20] = 36.7 mg/mL solution, −20° C., 1 Month
[21] = 36.7 mg/mL solution, −20° C., 2 Month
[22] = 36.7 mg/mL solution, −20° C., 3 Month
[23] = 36.7 mg/mL solution, −20° C., 6 Month
[24] = 72.4 mg/mL solution, 40° C. and 75% RH, 1 Month
[25] = 72.4 mg/mL solution, 40° C. and 75% RH, 2 Month
[26] = 72.4 mg/mL solution, 40° C. and 75% RH, 3 Month
[27] = 72.4 mg/mL solution, 40° C. and 75% RH, 6 Month
[28] = 72.4 mg/mL solution, −20° C., 0 Month
[29] = 72.4 mg/mL solution, −20° C., 1 Month
[30] = 72.4 mg/mL solution, −20° C., 2 Month
[31] = 72.4 mg/mL solution, −20° C., 3 Month
[32] = 72.4 mg/mL solution, −20° C., 6 Month
[33] = 81.4 mg/mL solution, 40° C. and 75% RH, 1 Month
[34] = 81.4 mg/mL solution, 40° C. and 75% RH, 3 Month
[35] = 81.4 mg/mL solution, −20° C., 1 Month
[36] = 81.4 mg/mL solution, −20° C., 2 Month
[37] = 81.4 mg/mL solution, −20° C., 3 Month

In the case of “RRWVRRVRRVWRRVVRVVRRWVRR-NH2 [SEQ ID NO: 1]”, the “Solution pH” value ([1]; 7 days/−20° C.) is reported as 4.95, the “Main peak SEQ ID NO: 1 area %” value ([1]; 14 days/−20° C.) is reported as 95.4% and the “SEQ ID NO: 1 content” value ([1]; 54 days/−20° C.) is reported as 5.09 mg/mL. For the same substance, the “Solution pH” value ([1]; 54 days/−20° C.) was 4.95, the solubility ([2]; pH 5, water, pH 5.0, read-out: Solubility of near saturation, Concentration) was ≥ 328 mg/mL and the solubility ([2]; pH 7.4, water, pH 7.4, read-out: Solubility of near saturation, Concentration) was ≥ 228 mg/mL. For the same substance, the solubility ([2]; pH 8.1, water, pH 8.1, read-out: Solubility of near saturation, Concentration) was ≥ 250 mg/mL, the solubility ([2]; pH=5.0, read-out: solubility near saturation concentration in water) was 328 mg/mL and the solubility ([2]; pH=7.4, read-out: solubility near saturation concentration in water) was 228 mg/mL. The solubility ([2]; pH=8.1, read-out: solubility near saturation concentration in water) was 250 mg/mL, the “Purity of near saturation solution” value ([2]; pH 5.0) was 95.6% and the “Purity of near saturation solution” value ([2]; pH 7.4) was 97.2%. For the same substance, the “Purity of near saturation solution” value ([2]; pH 8.1) was 96.7%, the pKa was ~12.5 and the “level of impurity at RRT 0.98” value ([3]; 7 days at 40° C.) was 0.4%. The “level of impurity at RRT 0.98” value ([3]; 54 days at 40° C.) was 1.1%, the “Main peak SEQ ID NO: 1 area %” value ([3]; 7 days/40° C.) was 97.2% and 97.1% and the “SEQ ID NO: 1 content” value ([3]; 7 days/40° C.) was 5.05 mg/mL and 5.11 mg/mL. For the same substance, the “Solution pH” value ([3]; 7 days/40° C.) was 4.98 and 5.02, the “Main peak SEQ ID NO: 1 area %” value ([3]; 7 days/−20° C.) was 97.2% and the “SEQ ID NO: 1 content” value ([3]; 7 days/−20° C.) was 5.11 mg/mL. For the same substance, the “Main peak SEQ ID NO: 1 area %” value ([3]; 14 days/40° C.) was 96.2% and 94.7%, the “SEQ ID NO: 1 content” value ([3]; 14 days/40° C.) was 5.05 mg/mL and 5.01 mg/mL and the “Solution pH” value ([3]; 14 days/40° C.) was 5.01 and 5.00. The “SEQ ID NO: 1 content” value ([3]; 14 days/−20° C.) was 5.08 mg/mL, the “Solution pH” value ([3]; 14 days/−20° C.) was 4.97 and the “Main peak SEQ ID NO: 1 area %” value ([3]; 54 days/40° C.) was 95.6%. For the same substance, the “SEQ ID NO: 1 content” value ([3]; 54 days/40° C.) was 4.99 mg/mL, the “Solution pH” value ([3]; 54 days/40° C.) was 4.96 and the “Main peak SEQ ID NO: 1 area %” value ([3]; 54 days/−20° C.) was 96.9%. The “Area % of concurrent analytical standard” value ([3]; standard run with the 7 days samples) was 97.1 ± 0.4%, the “Area % of concurrent analytical standard” value ([3]; standard run with the 14 days samples) was 95.5 ± 0.5% and the “Area % of concurrent analytical standard” value ([3]; standard run with the 54 days samples) was 96.8 ± 0.8%. For the same substance, the pH [4, 6] was “Average Reading: 4.9”, the pH [4, 7] was “Average Reading: 5.0” and the pH [4, 8] was “Average Reading: 5.0”. The pH [4, 9] was 5.0, the pH [4, 10] was “Average Reading: 4.9” and the pH [4, 11] was “Average Reading: 5.0”. For the same substance, the pH [4, 12] was “Average Reading: 4.9”, the pH [4, 13] was “Average Reading: 5.0” and the pH [4, 14] was 5.0. For the same substance, the “pH Average Reading” value [4, 15] was “Average Reading: 4.8”, the “pH Average Reading” value [4, 16] was “Average Reading: 4.9” and the “pH Average Reading” value [4, 17] was “Average Reading: 5.0”. The pH [4, 18] was 4.8, the pH [4, 19] was “Average Reading: 4.9” and the pH [4, 20] was “Average Reading: 4.8”. The pH [4, 21] was “Average Reading: 4.9”, the pH [4, 22] was “Average Reading: 5.0” and the pH [4, 23] was 4.9. For the same substance, the “pH Average Reading” value [4, 24] was “Average Reading: 4.7”, the “pH Average Reading” value [4, 25] was “Average Reading: 4.9” and the “pH Average Reading” value [4, 26] was “Average Reading: 5.0”. For the same substance, the pH [4, 27] was 4.8, the “pH Average Reading” value [4, 28] was “Average Reading: 4.9” and the “pH Average Reading” value [4, 29] was “Average Reading: 4.7”. For the same substance, the “pH Average Reading” value [4, 30] was “Average Reading: 4.8”, the “pH Average Reading” value [4, 31] was “Average Reading: 5.0” and the pH [4, 32] was 4.8. It also gave a pH [4, 33] of 4.9, a pH ([4]; 81.4 mg/mL solution, 40° C. and 75% RH, 2 Month) of 4.9 and a pH [4, 34] of 4.9. It also gave a pH ([4]; 81.4 mg/mL solution, −20° C., 0 Month) of 4.6, a pH [4, 35] of 4.8 and a pH [4, 36] of 4.9. The pH [4, 37] was 4.6, the “Visual Appearance” value [5, 6] was “Clear, colorless liquid. Free of visible particulates” and the “Visual Appearance” value [5, 7] was “Clear, colorless liquid. Free of visible particulates”. The “Visual Appearance” value [5, 8] was “Clear, colorless liquid. Free of visible particulates”, the “Visual Appearance” value [5, 9] was “Clear, colorless liquid. Free of visible particulates,” and the “Visual Appearance” value [5, 10] was “Clear, colorless liquid. Free of visible particulates”. For the same substance, the “Visual Appearance” value [5, 11] was “Clear, colorless liquid. Free of visible particulates”, the “Visual Appearance” value [5, 12] was “Clear, colorless liquid. Free of visible” and the “Visual Appearance” value [5, 13] was “Clear, colorless liquid. Free of visible particulates”. The “Visual Appearance” value [5, 14] was “Clear, colorless liquid. Free of visible particulates,”, the “Visual Appearance” value [5, 15] was “Clear, colorless liquid” and the “Visual Appearance” value [5, 16] was “Clear, colorless liquid”. For the same substance, the “Visual Appearance” value [5, 17] was “Clear, colorless liquid”, the “Visual Appearance” value [5, 18] was “Clear, colorless liquid, free” and the “Visual Appearance” value [5, 19] was “Clear, colorless liquid”. For the same substance, the “Visual Appearance” value [5, 20] was “Clear, colorless liquid”, the “Visual Appearance” value [5, 21] was “Clear, colorless liquid” and the “Visual Appearance” value [5, 22] was “Clear, colorless liquid”. For the same substance, the “Visual Appearance” value [5, 23] was “Clear, colorless liquid, free”, the “Visual Appearance” value [5, 24] was “Clear, colorless liquid” and the “Visual Appearance” value [5, 25] was “Clear, colorless liquid”. For the same substance, the “Visual Appearance” value [5, 26] was “Clear, colorless liquid”, the “Visual Appearance” value [5, 27] was “Clear, slightly yellow liquid, free” and the “Visual Appearance” value [5, 28] was “Clear, colorless liquid”. For the same substance, the “Visual Appearance” value [5, 29] was “Clear, colorless liquid”, the “Visual Appearance” value [5, 30] was “Clear, colorless liquid” and the “Visual Appearance” value [5, 31] was “Clear, colorless liquid”. For the same substance, the “Visual Appearance” value [5, 32] was “Clear, colorless liquid, free”, the “Visual Appearance” value [5, 33] was “Clear, yellow liquid” and the “Visual Appearance” value [5, 34] was “stopper Solution: Clear, yellow”. For the same substance, the “Visual Appearance” value [5, 35] was “Clear, colorless liquid”, the “Visual Appearance” value [5, 36] was “a clear colorless liquid, visibly” and the “Visual Appearance” value [5, 37] was “rubber stopper Solution: Clear, colorless liquid,”.
